Molecules are shown by their SMILES. “And” between values parts separate entries of the source, which are not always exact repeats. Identical values can stand only once. Toxic doses and inconclusive results are not listed.

The record followed here is PubChem BioAssay AID330 (DTP/NCI, 2004).

This test has as its system P388 leukemia ip, CD2F1 mice, survival T/C. Put plainly: NCI In Vivo Anticancer Drug Screen. Data for tumor model P388 Leukemia (intraperitoneal) in CD2F1 (CDF1) mice. Particulars: endpoint: median survival time, higher = longer survival. Put shortly: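 Mice carrying the transplanted tumor received test compound or vehicle. Survival was recorded in each group, and the value is the treated-group measurement divided by that of the vehicle-treated control group.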

The mark [1] stands for this setting: dose: 12.5 mg/kg/injection, schedule: Q01DX009 (ip), vehicle: saline.
The mark [2] stands for this setting: dose: 25.0 mg/kg/injection, schedule: Q01DX009 (ip), vehicle: saline.
The mark [3] stands for this setting: dose: 50.0 mg/kg/injection, schedule: Q01DX009 (ip), vehicle: saline.
Where [4] appears, read: dose: 100.0 mg/kg/injection, schedule: Q01DX009 (ip), vehicle: saline.
[5] abbreviates: dose: 50.0 mg/kg/injection, schedule: Q01DX009 (ip), vehicle: saline with Tween-80.
Where [6] appears, read: dose: 200.0 mg/kg/injection, schedule: Q01DX009 (ip), vehicle: saline with Tween-80.
Where [7] appears, read: dose: 50.0 mg/kg/injection, schedule: Q01DX009 (ip), vehicle: Klucel (hydroxypropylcellulose) (HPC).
[8] abbreviates: dose: 100.0 mg/kg/injection, schedule: Q01DX009 (ip), vehicle: Klucel (hydroxypropylcellulose) (HPC).
The mark [9] stands for this setting: dose: 200.0 mg/kg/injection, schedule: Q01DX009 (ip), vehicle: Klucel (hydroxypropylcellulose) (HPC).
Where [10] appears, read: dose: 6.25 mg/kg/injection, schedule: Q01DX009 (ip), vehicle: saline with Tween-80.
Setting [11] is: dose: 12.5 mg/kg/injection, schedule: Q01DX009 (ip), vehicle: saline with Tween-80.
The mark [12] stands for this setting: dose: 25.0 mg/kg/injection, schedule: Q01DX009 (ip), vehicle: saline with Tween-80.

For `COc1cc2c(c(OC)c1OC)-c1ccc(NCc3ccccc3)c(=O)cc1[C@@H](NC(C)=O)CC2`, the T/C is 103 % of control and 104 % of control and 105 % of control (dose: 0.78 mg/kg/injection, schedule: Q01DX009 (ip), vehicle: Klucel (hydroxypropylcellulose) (HPC)); 98 % of control and 101 % of control and 104 % of control (dose: 1.56 mg/kg/injection, schedule: Q01DX009 (ip), vehicle: Klucel (hydroxypropylcellulose) (HPC)); 105 % of control and 106 % of control and 117 % of control (dose: 3.12 mg/kg/injection, schedule: Q01DX009 (ip), vehicle: Klucel (hydroxypropylcellulose) (HPC)); 117 % of control (dose: 6.25 mg/kg/injection, schedule: Q01DX009 (ip), vehicle: Klucel (hydroxypropylcellulose) (HPC)); 98 % of control and 117 % of control (dose: 12.5 mg/kg/injection, schedule: Q01DX009 (ip), vehicle: Klucel (hydroxypropylcellulose) (HPC)).
Consider `CC1(C(=O)O)CCCC2(C)C3=CC(=O)OC3(OO)CCC12` (stereo not drawn), for which the T/C by setting is: under setting [1], 104 % of control; under setting [2], 101 % of control; under setting [3], 101 % of control.
Consider `CC1=Nc2ccc(C)cc2N=C(C)C1`, for which the T/C was 86 % of control under setting [3] and 91 % of control under setting [4].
Turning to `CCCN1CCc2cccc3c2C1Cc1ccc(O)c(O)c1-3` (stereo not drawn), the T/C reads like this: under setting [5], 121 % of control; under setting [3], 113 % of control; under setting [6], 109 % of control.
As to `CCN(CC)CCCNc1nccc2c(OC)cccc12`, the T/C is 93 % of control (dose: 25.0 mg/kg/injection, schedule: Q01DX005 (ip), vehicle: saline) and 89 % of control (dose: 50.0 mg/kg/injection, schedule: Q01DX005 (ip), vehicle: saline).
In the case of `CCOC(=O)C1(n2[nH]c(=O)n(-c3ccccc3)c2=O)CC(C)(C)OC1=O` (stereo not drawn), the T/C is 106 % of control under setting [7], 98 % of control under setting [8] and 98 % of control under setting [9].
Take `O=C(NCCNC(=O)Nc1ccccc1S(=O)(=O)F)Nc1ccccc1S(=O)(=O)F`: the T/C runs as follows: under setting [5], 96 % of control; (dose: 100.0 mg/kg/injection, schedule: Q01DX009 (ip), vehicle: saline with Tween-80) 97 % of control; under setting [6], 93 % of control.
In the case of `Cc1[nH]nc2c(C/C=C/c3ccccc3)n[nH]c(=O)c12`, the T/C by setting is: under setting [7], 98 % of control; under setting [8], 100 % of control; under setting [9], 101 % of control.
As to `COC(=O)C12CN(C)CC(C(=O)OC)(C1=O)C(c1ccccc1)OC2c1ccccc1` (stereo not drawn), the T/C is 107 % of control and 98 % of control (dose: 60.0 mg/kg/injection, schedule: Q01DX005 (ip), vehicle: saline with Tween-80); 99 % of control (dose: 120.0 mg/kg/injection, schedule: Q01DX005 (ip), vehicle: saline with Tween-80); 98 % of control and 90 % of control (dose: 240.0 mg/kg/injection, schedule: Q01DX005 (ip), vehicle: saline with Tween-80).
Take `CC(=O)OCCN1CCN(CC/C=C2\c3ccccc3Sc3ccc(Cl)cc32)CC1`: the T/C reads like this: under setting [10], 109 % of control; under setting [11], 113 % of control; under setting [12], 113 % of control.
As for `COc1ccc(C2c3cc4c(cc3OC(C)(OC)C2C)OCO4)cc1` (stereo not drawn), the T/C by setting is: (dose: 6.25 mg/kg/injection, schedule: Q01DX005 (ip), vehicle: Klucel (hydroxypropylcellulose) (HPC)) 95 % of control; (dose: 12.5 mg/kg/injection, schedule: Q01DX005 (ip), vehicle: Klucel (hydroxypropylcellulose) (HPC)) 87 % of control; (dose: 25.0 mg/kg/injection, schedule: Q01DX005 (ip), vehicle: Klucel (hydroxypropylcellulose) (HPC)) 87 % of control.
Take `CCC(=O)Oc1ccc(/C=N/NC(N)=S)nc1`: the T/C runs as follows: under setting [1], 166 % of control; under setting [2], 157 % of control; under setting [3], 158 % of control and 164 % of control.
On to `[N-]=[N+]=CC(=O)Oc1ccc([N+](=O)[O-])cc1`, for which the T/C runs as follows: (dose: 3.13 mg/kg/injection, schedule: Q01DX009 (ip), vehicle: other) 100 % of control; (dose: 6.25 mg/kg/injection, schedule: Q01DX009 (ip), vehicle: other) 98 % of control; (dose: 12.5 mg/kg/injection, schedule: Q01DX009 (ip), vehicle: other) 104 % of control; (dose: 25.0 mg/kg/injection, schedule: Q01DX009 (ip), vehicle: other) 98 % of control and 97 % of control; (dose: 50.0 mg/kg/injection, schedule: Q01DX009 (ip), vehicle: other) 89 % of control.
Take `O=S(=O)(c1ccccc1)N1CC2(CN(S(=O)(=O)c3ccccc3)c3ccccc31)CN(S(=O)(=O)c1ccccc1)c1ccccc1N(S(=O)(=O)c1ccccc1)C2`: the T/C (dose: 100.0 mg/kg/injection, schedule: Q01DX001 (ip), vehicle: saline with Tween-80) was 90 % of control; the T/C (dose: 200.0 mg/kg/injection, schedule: Q01DX001 (ip), vehicle: saline with Tween-80) is 87 % of control; the T/C (dose: 400.0 mg/kg/injection, schedule: Q01DX001 (ip), vehicle: saline with Tween-80) was 88 % of control.
`c1ccc(-c2csc(=[N+]3CCCCC3)s2)cc1`: under “dose: 6.25 mg/kg/injection, schedule: Q01DX009 (ip), vehicle: water”, the T/C is 111 % of control and 117 % of control and 124 % of control.
For the compound `CC1=C/C(=N/N=c2\ccn(O)cc2C)C=CC1=N`, the T/C reads like this: (dose: 3.13 mg/kg/injection, schedule: Q01DX009 (ip), vehicle: saline with Tween-80) 100 % of control; under setting [10], 95 % of control; under setting [11], 104 % of control; under setting [12], 98 % of control.
For `Cc1c(Cl)c(O)cc2oc3cc(O)cc(O)c3c(=O)c12`, the T/C is 105 % of control (dose: 10.0 mg/kg/injection, schedule: Q04DX003 (ip), vehicle: Klucel (hydroxypropylcellulose) (HPC)); 102 % of control (dose: 20.0 mg/kg/injection, schedule: Q04DX003 (ip), vehicle: Klucel (hydroxypropylcellulose) (HPC)); 105 % of control (dose: 40.0 mg/kg/injection, schedule: Q04DX003 (ip), vehicle: Klucel (hydroxypropylcellulose) (HPC)).
For `Cc1cc(C)c(SSc2nnnn2-c2ccccc2)c(C)c1`, the T/C reads like this: under setting [7], 108 % of control; under setting [8], 103 % of control; under setting [9], 94 % of control.
As to `CCCCOc1cccc2c(NCCCCNCCCNc3c4ccccc4nc4c(OCCCC)cccc34)c3ccccc3nc12`, the T/C is 105 % of control (dose: 0.63 mg/kg/injection, schedule: Q01DX009 (ip), vehicle: other); 120 % of control (dose: 1.25 mg/kg/injection, schedule: Q01DX009 (ip), vehicle: other); 111 % of control (dose: 2.5 mg/kg/injection, schedule: Q01DX009 (ip), vehicle: other); 121 % of control (dose: 5.0 mg/kg/injection, schedule: Q01DX009 (ip), vehicle: other).
For the compound `BrCC[N+]12CC[N+](CCBr)(CC1)C2`, the T/C was 114 % of control (dose: 6.25 mg/kg/injection, schedule: Q01DX009 (ip), vehicle: saline); 116 % of control under setting [1]; 203 % of control and 110 % of control and 121 % of control under setting [3]; 101 % of control (dose: 50.0 mg/kg/injection, schedule: Q04DX003 (ip), vehicle: water); 202 % of control and 115 % of control and 118 % of control under setting [4]; 108 % of control (dose: 100.0 mg/kg/injection, schedule: Q04DX003 (ip), vehicle: water). Besides, the T/C by setting is: (dose: 200.0 mg/kg/injection, schedule: Q01DX009 (ip), vehicle: saline) 114 % of control; (dose: 400.0 mg/kg/injection, schedule: Q04DX003 (ip), vehicle: water) 173 % of control.
Turning to `CC1=C(C)C(=O)O[C@@H]([C@](C)(O)[C@]2(O)CC[C@@]3(O)[C@@H]4C[C@H](O)[C@]5(O)[C@@H](O)C=CC(=O)[C@]5(C)[C@H]4CC[C@]23C)C1`, the T/C (dose: 4.0 mg/kg/injection, schedule: Q01DX005 (ip), vehicle: distilled water + Tween-80) was 100 % of control; the T/C (dose: 8.0 mg/kg/injection, schedule: Q01DX005 (ip), vehicle: distilled water + Tween-80) is 102 % of control; the T/C (dose: 16.0 mg/kg/injection, schedule: Q01DX005 (ip), vehicle: distilled water + Tween-80) was 107 % of control; the T/C (dose: 32.0 mg/kg/injection, schedule: Q01DX005 (ip), vehicle: distilled water + Tween-80) was 106 % of control and 112 % of control; the T/C (dose: 64.0 mg/kg/injection, schedule: Q01DX005 (ip), vehicle: distilled water + Tween-80) is 99 % of control and 107 % of control; the T/C (dose: 128.0 mg/kg/injection, schedule: Q01DX005 (ip), vehicle: distilled water + Tween-80) was 99 % of control.
